This is an account of results in patent publication US5925372A, “Mixed solvent mutually enhanced transdermal therapeutic system” (Novartis Corporation, priority 1991, dated 1999).

Like-named read-outs stand apart in the source and are kept apart here.

The conditions of series [1]: cited from earlier work.
The conditions of series [2]: cited from earlier work. The source holds these as a separate data set.
Series [3] can be described thus: Fluxes through ethylene vinyl acetate membranes (Table 1). To be noted: for ^3 H2 O flux through ethylene vinyl acetate membrane: ethanol:water (7:3) reservoir; for Nitroglycerin flux through ethylene vinyl acetate membrane: ethanol:water (7:3) reservoir saturated with nitroglycerin on lactose. How it is done:
(§1) For convenience purposes, this is measured by placing a portion of membrane or membrane/adhesive laminate in a diffusion cell and filling one side with a 70%, aqueous ethanol. After a period of time the amounts of water and alkanol that have crossed the membrane are determined. Typically, when measuring ethanol flux, the receiver side is water. When measuring water flux, either a) the donor side is ^3 H2 O and the receiver side is water or b) the donor side is water and the receiver side is air.

The procedure of series [4]: FIG. 2 is a graph of the steady-state flux of ethanol across human epidermis versus the volume fraction of ethanol in the donor solution.
This Example is based on FIGS. 1-3. […] The reservoir contains 1.7 ml of ethanol, 0.3 ml water, 200 mg of progesterone as the drug, and 2% Klucel as a gelling agent. […] A volume fraction of 0.85 is chosen to allow for the back flux of water and depletion of ethanol during the use of the system.

For series [5] the following is noted: commercial estradiol system, cited from earlier work.
The conditions of series [6]: cited from earlier work. This is another data set of the same source.
Series [7] is described as follows: Water and ethanol flux through the combined membrane adhesive laminate. To be noted: 32.8% vinyl acetate membrane plus 2 mil silicone face adhesive. How it is done: as §1
(§2) In current-marketed transdermal devices, the adhesive is typically between 1.5 and 3 mils thick and is on the face of the device.

A short description of series [8]: Charge state in aqueous solutions. The format is physicochemical.
Series [9] can be described thus: Steady-state flux of progesterone across the epidermis versus volume fraction of ethanol in donor (FIG. 1). Format: in vitro ADME. An excerpt: (§3) This Example is based on FIGS. 1-3.
Series [10] in a line: Flux of progesterone across membrane and adhesive on human epidermis (FIG. 3). Format: in vitro ADME. To be noted: 1 mil polyurethane membrane and silicone adhesive.
Source text: FIG. 3 is a graph of the flux of progesterone across a membrane and adhesive on human epidermis versus volume fraction of ethanol in the aqueous ethanol reservoir.
as §3

Series [11] in a line: Fluxes of nitroglycerin through skin and ethylene vinyl acetate membranes (Table 2). The format is in vitro ADME.
The nature of series [12]: Fluxes of nitroglycerin and ethanol through 32.8% vinyl acetate membrane plus skin with and without silicone face adhesive (Table 3).
Source text: as §2

Series [13] is described as follows: Flux of nitroglycerin and ethanol through epidermis, with and without membrane (FIGS. 5 and 6). To be noted: FIG. 6. An excerpt:
FIG. 5 is a graph of the flux of nitroglycerin across epidermis versus the volume fraction of ethanol in the aqueous ethanol reservoir.
FIG. 6 is a graph of the flux of nitroglycerin versus the flux of ethanol for two different membrane thicknesses and epidermis as compared to epidermis alone.
These Examples are based on FIGS. 5 and 6. A 0.65 volume fraction of ethanol is used in the reservoir. The systems have a 10 cm^2 surface area, and use a polyester impermeable backing, a polyurethane membrane, and a silicone adhesive. […] Above a volume fraction of 0.8 ethanol, a safety hazard or transportation law infraction may be incurred with nitroglycerin unless the nitroglycerin is kept below 10%.

For series [14] the following is noted: cited from earlier work. This is another data set of the same source.
The format of series [15] is in vitro ADME, human. To be noted: 0.7 volume fraction of ethanol; active agent at saturation. An excerpt:
FIG. 4 is a graph of the flux of (±) trans-1,3,4,4a,5,10b-hexahydro-4-propyl-2H-[1]benzopyrano[3,4-b]pyridin-9-ol monohydrochloride, an ionizable drug which is a dopamine autoreceptor agonist, across human epidermis from ethanol: water (7:3) versus pH of that aqueous ethanol solution. In aqueous solutions, the drug is […] charged below pH 6.5.
This Example is based on FIG. 4 in which the dopamine autoreceptor agonist, (±)trans-1,3,4,4a,5,10b-hexahydro-4-propyl-2H-[1]benzopyrano[3,4-b]pyridin-9-ol, an ionizable drug, permeates skin. For this drug the optimal pH of an ethanol:water donor which is 0.7 volume fraction of ethanol is in the range of 4. A microporous membrane such as a microporous polypropylene and a silicone adhesive may be used. The active agent is present at saturation.

Take `C[C@]12CC[C@@H]3c4ccc(O)cc4CC[C@H]3[C@@H]1CC[C@@H]2O` [estradiol]: the “Skin permeation of estradiol from neat ethanol versus aqueous ethanol donor solutions” value in [1] was “skin permeation from neat ethanol is as good or better than from aqueous ethanol donor solutions”. Moreover, the “Flux of estradiol through hairless mouse skin, neat versus aqueous ethanol” value in series [2] is “neat ethanol increases skin permeation better than aqueous ethanol”.

Turning to `CCO` [Ethanol, ethanol], in series [3], the “Dependence of permeation on vinyl acetate content” value is listed as “increase with vinyl acetate content”. The “Volume fraction of ethanol at which ethanol flux through skin is optimized” value in series [4] is reported as 0.4-0.85 volume fraction of ethanol. In series [5] (neat ethanol gel reservoir), the “Ethanol permeability of rate-limiting membrane” value is around 400 mcg/cm^2 /hr.

As for `O=C(O)c1ccccc1O` [salicylic acid], the “Flux of salicylic acid through human skin, neat versus aqueous ethanol” value in series [6] was “neat ethanol increases skin permeation better than aqueous ethanol”.

As to `[3H]O[3H]` [^3 H2 O, tritiated water], the “Dependence of permeation on vinyl acetate content” value in [3] (until reservoir composition of ethanol and water is delivered to skin surface) is “increase with vinyl acetate content”. In addition, the “^3 H2 O flux through ethylene vinyl acetate membrane” value in series [3] (vinyl acetate content 9%) turned out to be 0.5 mg/h; in series [3] (vinyl acetate content 18%), 4 ± 0.3 mg/h; in series [3] (vinyl acetate content 28%), 17 ± 3 mg/h; in [3] (vinyl acetate content 40%), 63 ± 9 mg/h. Moreover, the “Tritiated water flux through combined membrane adhesive laminate” value in series [7] is “smaller than the range disclosed by this invention”.

For the compound `O` [water], the “Water permeability of rate-limiting membrane” value in [5] is “relatively impermeable to water”.

Take `CCCN1CCC[C@@H]2c3cc(O)ccc3OC[C@H]21.Cl` (racemic) [(±) trans-1,3,4,4a,5,10b-hexahydro-4-propyl-2H-[1]benzopyrano[3,4-b]pyridin-9-ol monohydrochloride]: the “pH below which the drug is negatively charged in aqueous solutions” value in [8] was below 6.5.

With `CC(=O)[C@H]1CC[C@H]2[C@@H]3CCC4=CC(=O)CC[C@]4(C)[C@H]3CC[C@]12C` [progesterone], the “Progesterone flux across epidermis from optimized aqueous ethanol reservoir” value in series [9] (compared to both neat water and neat ethanol) is reported as “large increase in the flux”. For the same compound, the “Volume fraction of ethanol at which progesterone flux through skin is optimized” value in series [9] (not including the drug or gelling agent) is reported as 0.4-0.85 volume fraction of ethanol. For the same compound, the “Volume fraction of ethanol at optimum of skin permeation with membrane and adhesive” value in [10] was ~0.7 volume fraction of ethanol.

For the compound `O=[N+]([O-])OCC(CO[N+](=O)[O-])O[N+](=O)[O-]` [Nitroglycerin, nitroglycerin], in series [11] (1 mil ethylene/vinyl acetate membranes), the “Rate control of nitroglycerin permeation” value is recorded as “the skin controls the rate of nitroglycerin permeation”. In [11] (membranes of higher vinyl acetate content), the “Improvement of nitroglycerin flux through skin over the best of previously disclosed systems” value was at most 2 factor. Further, the “Flux of nitroglycerin through skin and ethylene vinyl acetate membrane” value came out at 30 mcg/cm^2 /hr in series [11] (vinyl acetate content 9%), 60 mcg/cm^2 /hr in series [11] (vinyl acetate content 18%), 66 mcg/cm^2 /hr in series [11] (vinyl acetate content 28%) and 120 mcg/cm^2 /hr in series [11] (vinyl acetate content 40%). Further, the “Nitroglycerin flux through ethylene vinyl acetate membrane” value in [3] (vinyl acetate content 9%) turned out to be 2.4 ± 0.3 mg/h; in series [3] (vinyl acetate content 18%) it was 5 ± 0.7 mg/h; in [3] (vinyl acetate content 28%) it was 10 ± 0.5 mg/h; in series [3] (vinyl acetate content 40%), 21 ± 0.3 mg/h. Besides, the “Improvement of nitroglycerin flux by optimization of adhesive and membrane layers” value in series [12] (32.8% vinyl acetate membrane, peripheral versus 2 mil silicone face adhesive) is “more than a factor of two”. Also, the Nitroglycerin flux in [12] (Membrane alone and skin, 32.8% vinyl acetate membrane, ethanol:water (85:15) reservoir) was 82 ± 26 mcg/cm^2 /hr; in series [12] (Membrane and adhesive (2 mil silicone face adhesive) and skin, 32.8% vinyl acetate, ethanol:water (85:15) reservoir) it was 37 ± 10 mcg/cm^2 /hr; in series [12] (Skin alone from ethanol:water (70:30)), 85 ± 15 mcg/cm^2 /hr; in [12] (Skin alone without ethanol in donor) it was 15 ± 7 mcg/cm^2 /hr. Moreover, the “Relation of nitroglycerin flux versus ethanol flux through skin and membrane adhesive laminates” value in [13] was “The nitroglycerin follows the ethanol through skin”.

For the compound `C#C[C@]1(O)CC[C@H]2[C@@H]3CCC4=CC(=O)CC[C@@H]4[C@H]3CC[C@@]21CC` [levonorgestrel], the “Flux of levonorgestrel through rat skin, neat versus aqueous ethanol” value in series [14] is reported as “neat ethanol increases skin permeation better than aqueous ethanol”.

As for `CCCN1CCC[C@@H]2c3cc(O)ccc3OC[C@H]21` (racemic) [(±)trans-1,3,4,4a,5,10b-hexahydro-4-propyl-2H-[1]benzopyrano[3,4-b]pyridin-9-ol], the “Optimal pH of ethanol:water donor for skin permeation” value in series [15] is given as around 4.
